# Target: GluN1/GluN2B Receptors (Rattus norvegicus, UniProt P35439+Q00960)
# Assay: Two-electrode voltage-clamp IC50 determination at GluN1/GluN2B receptors expressed in Xenopus oocytes
# Assay type: cell-based, Human or Rat
# Protocol: Determination of IC50 Values of GluN1/GluN2B Receptors Expressed in Xenopus oocytes in Human or Rat Stage V and VI oocytes were surgically removed from the ovaries of large, well-fed and healthy Xenopus laevis anesthetized with 3-amino-benzoic acid ethyl ester (3 gm/l). Oocytes were injected within 24 hrs of isolation with 3-5 ng of GluN1 subunit cRNA and 7-10 ng of GluN2 cRNA subunit in a 50 nl volume, and incubated in Barth's solution at 18° C. for 2-7 d. Glass injection pipettes had tip sizes ranging from 10-20 microns, and were backfilled with mineral oil. Two electrode voltage-clamp recordings were made 2-7 days post-injection. Oocytes were placed in a dual-track plexiglass recording chamber and dual recordings were made at room temperature (23° C.) using two Warner OC725C two-electrode voltage clamp amplifiers, arranged as recommended by the manufacturer. Glass microelectrodes (1-10 Megaohms) were filled with 300 mM KCl (voltage electrode) or 3 M KCl (current electrode). The bath clamps communicated across silver chloride wires placed into each side of the recording chamber, both were assumed to be at a reference potential of 0 mV. Oocytes were perfused with a solution comprised of (in mM) 90 NaCl, 1 KCl, 10 HEPES, 10 EDTA and 0.5 BaCl2; pH was adjusted by addition of 1-3 M NaOH or HCl. Oocytes were recorded under voltage clamp at −40 mV. Final concentrations for glutamate and glycine were 50 μM and 30 μM, respectively. Concentration-response curves for experimental compounds were obtained by applying maximal glutamate/glycine, followed by glutamate/glycine plus variable concentrations of experimental compounds. Dose response curves consisting of 4 to 6 concentrations were obtained in this manner. The baseline leak current at −40 mV was measured before and after recording, and the full recording linearly corrected for any change in leak current. The level of inhibition by applied experimental compounds measured after a 6 min exposure to a compound was expressed as a percent of the initial glutamate response, and averaged together across oocytes from multiple experiments. Results were pooled, and the average percent responses at antagonist concentrations were fit by the equation, Percent Response=(100−minimum)/(1+([conc]/IC50)^nH)+minimum where minimum is the residual percent response in saturating concentration of the experimental compounds, IC50 is the concentration of antagonist that causes half of the achievable inhibition, and nH is a slope factor describing steepness of the inhibition curve. Minimum was constrained to be between zero and 20. Recordings were made at pH 6.9, pH 7.4, and pH 7.6.
# Chain of GluN1/GluN2B Receptors (Q00960 27-1482, other chains not shown): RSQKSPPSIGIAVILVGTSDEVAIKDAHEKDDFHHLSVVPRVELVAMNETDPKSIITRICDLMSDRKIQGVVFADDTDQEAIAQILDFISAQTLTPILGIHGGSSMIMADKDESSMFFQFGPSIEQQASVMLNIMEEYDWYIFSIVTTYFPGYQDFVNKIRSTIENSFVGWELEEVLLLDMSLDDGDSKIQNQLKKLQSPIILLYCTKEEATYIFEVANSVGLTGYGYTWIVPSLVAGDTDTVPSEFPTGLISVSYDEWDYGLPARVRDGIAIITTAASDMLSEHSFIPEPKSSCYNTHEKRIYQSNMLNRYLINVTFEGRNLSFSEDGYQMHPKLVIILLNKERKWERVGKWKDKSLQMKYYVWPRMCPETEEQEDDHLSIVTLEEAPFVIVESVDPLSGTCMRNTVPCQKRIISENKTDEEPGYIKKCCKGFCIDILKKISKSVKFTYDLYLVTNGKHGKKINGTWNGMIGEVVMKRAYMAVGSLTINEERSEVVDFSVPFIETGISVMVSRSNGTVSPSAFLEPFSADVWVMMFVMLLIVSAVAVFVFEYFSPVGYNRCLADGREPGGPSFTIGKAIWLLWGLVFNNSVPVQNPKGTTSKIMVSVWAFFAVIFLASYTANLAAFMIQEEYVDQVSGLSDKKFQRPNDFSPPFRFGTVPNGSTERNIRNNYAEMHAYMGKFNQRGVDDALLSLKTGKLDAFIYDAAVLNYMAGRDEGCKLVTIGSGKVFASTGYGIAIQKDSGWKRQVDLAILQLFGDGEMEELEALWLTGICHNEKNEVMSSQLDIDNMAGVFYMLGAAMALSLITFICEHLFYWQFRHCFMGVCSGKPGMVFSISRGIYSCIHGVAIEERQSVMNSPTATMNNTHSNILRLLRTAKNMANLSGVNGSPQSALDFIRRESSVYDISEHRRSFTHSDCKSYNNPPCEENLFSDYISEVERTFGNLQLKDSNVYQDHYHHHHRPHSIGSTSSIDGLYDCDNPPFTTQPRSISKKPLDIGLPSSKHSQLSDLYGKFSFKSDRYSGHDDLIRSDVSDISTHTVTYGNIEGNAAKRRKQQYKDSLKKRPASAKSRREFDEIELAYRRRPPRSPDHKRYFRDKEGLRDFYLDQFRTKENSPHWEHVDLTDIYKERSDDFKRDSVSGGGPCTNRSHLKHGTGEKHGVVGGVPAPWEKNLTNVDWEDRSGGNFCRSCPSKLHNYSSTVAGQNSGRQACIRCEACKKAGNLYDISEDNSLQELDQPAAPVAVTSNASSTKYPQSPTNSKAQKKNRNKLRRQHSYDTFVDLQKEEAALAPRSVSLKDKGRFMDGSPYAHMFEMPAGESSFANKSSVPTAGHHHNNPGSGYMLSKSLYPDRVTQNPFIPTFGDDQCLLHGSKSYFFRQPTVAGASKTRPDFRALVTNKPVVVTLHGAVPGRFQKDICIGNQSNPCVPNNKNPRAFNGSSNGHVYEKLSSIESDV
Compound,nH (slope factor of the inhibition curve) (pH 6.9),nH (slope factor of the inhibition curve) (pH 7.6)
"O=C1NCc2cc(/C=C/[C@@H](O)CN3CCN(c4ccc(C5CC5)cc4)CC3)ccc2N1 [Compound 18, (R,E)-6-(4-(4-(4-cyclopropylphenyl)piperazin-1-yl)-3-hydroxybut-1-en-1-yl)-3,4-dihydroquinazolin-2(1H)-one]",−0.78,−1.28
"CC(C)c1ccc(N2CCN(C[C@@H](O)/C=C/c3ccc4c(c3)CCC(=O)N4)CC2)cc1 [Compound 25, (S,E)-6-(3-Hydroxy-4-(4-(4-isopropylphenyl)piperazin-1-yl)but-1-en-1-yl)-3,4-dihydroquinolin-2(1H)-one]",−0.61,−1.22
"O=C1CCc2cc(/C=C/C(CO)N3CCN(c4ccc(Cl)cc4)CC3)ccc2N1 (racemic) [Compound 23, (rac)-(E)-6-(3-(4-(4-chlorophenyl)piperazin-1-yl)-4-hydroxybut-1-en-1-yl)-3,4-dihydroquinolin-2(1H)-one]",−1.09,−0.60
"O=c1ccc2cc(/C=C/[C@H](O)CN3CCN(c4ccc(C5CC5)cc4)CC3)ccc2[nH]1 [Compound 13, (S,E)-6-(4-(4-(4-cyclopropylphenyl)piperazin-1-yl)-3-hydroxybut-1-en-1-yl)quinolin-2(1H)-one]",−0.81,−0.80
"O=C1COc2cc(/C=C/[C@@H](O)CN3CCN(c4ccc(C(F)(F)F)cc4)CC3)ccc2N1 [Compound 15, (R,E)-7-(3-hydroxy-4-(4-(4-(trifluoromethyl)phenyl)piperazin-1-yl)but-1-en-1-yl)-2H-benzo[b][1,4]oxazin-3(4H)-one]",−0.88,−1.04
"CCCc1ccc(N2CCN(C[C@@H](O)/C=C/c3ccc4[nH]c(=O)ccc4c3)CC2)cc1 [Compound 11, (S,E)-6-(3-hydroxy-4-(4-(4-propylphenyl)piperazin-1-yl)but-1-en-1-yl)quinolin-2(1H)-one]",−0.87,−0.52
"NC(=O)Nc1ccc(/C=C/[C@@H](O)CN2CCN(c3ccc(C(F)(F)F)cc3)CC2)cc1 [Compound 38, (R,E)-1-(4-(3-Hydroxy-4-(4-(4-(trifluoromethyl)phenyl)piperazin-1-yl)but-1-en-1-yl)phenyl)urea]",−0.64,−0.69
"CC(C)c1ccc(N2CCN(C[C@H](O)/C=C/c3ccc4c(c3)CCC(=O)N4)CC2)cc1 [Compound 29, (R,E)-6-(3-Hydroxy-4-(4-(4-isopropylphenyl)piperazin-1-yl)but-1-en-1-yl)-3,4-dihydroquinolin-2(1H)-one]",−0.54,−1.31
"CCCc1ccc(N2CCN(CC(O)C=Cc3ccc4[nH]c(=O)ccc4c3)CC2)cc1 (racemic) [Compound 10, (rac-)(E)-6-(3-hydroxy-4-(4-(4-propylphenyl)piperazin-1-yl)but-1-en-1-yl)quinolin-2(1H)-one]",−0.90,−1.24
"O=C1CCc2cc(/C=C/[C@@H](CO)N3CCN(c4ccc(C(F)(F)F)cc4)CC3)ccc2N1 [Compound 43, (S,E)-6-(4-Hydroxy-3-(4-(4-(trifluoromethyl)phenyl)piperazin-1-yl)but-1-en-1-yl)-3,4-dihydroquinolin-2(1H)-one]",−0.67,−1.09
"O=C1CCc2cc(/C=C/[C@@H](O)CN3CCN(c4ccc(C(F)(F)F)cc4)CC3)ccc2N1 [Compound 35, (R,E)-6-(3-Hydroxy-4-(4-(4-(trifluoromethyl)phenyl)piperazin-1-yl)but-1-en-1-yl)-3,4-dihydroquinolin-2(1H)-one]",−0.68,−0.75
"O=C1CCc2cc(/C=C/[C@H](O)CN3CCN(c4ccc(Cl)cc4)CC3)ccc2N1 [Compound 27, (S,E)-6-(4-(4-(4-Chlorophenyl)piperazin-1-yl)-3-hydroxybut-1-en-1-yl)-3,4-dihydro-quinolin-2(1H)-one]",−0.95,−0.64
"NC(=O)Nc1ccc(/C=C/[C@H](O)CN2CCN(c3ccc(C(F)(F)F)cc3)CC2)cc1 [Compound 39, (S,E)-1-(4-(3-Hydroxy-4-(4-(4-(trifluoromethyl)phenyl)piperazin-1-yl)but-1-en-1-yl)phenyl)urea]",−0.43,−0.69
"O=C1CCc2cc(/C=C/C(O)CN3CCN(c4ccc(Cl)cc4)CC3)ccc2N1 (racemic) [Compound 21, (rac)-(E)-6-(4-(4-(4-Chlorophenyl)piperazin-1-yl)-3-hydroxybut-1-en-1-yl)-3,4-dihydroquinolin-2(1H)-one]",−0.81,−1.28
"O=C1NCc2cc(/C=C/[C@@H](O)CN3CCN(c4ccc(C(F)(F)F)cc4)CC3)ccc2N1 [Compound 41, (R,E)-6-(3-hydroxy-4-(4-(4-(trifluoromethyl)phenyl)piperazin-1-yl)but-1-en-1-yl)-3,4-dihydroquinazolin-2(1H)-one]",−0.64,−1.04
"CC(C)c1ccc(N2CCN(C[C@@H](O)/C=C/c3ccc(NC(N)=O)cc3)CC2)cc1 [Compound 36, (S,E)-1-(4-(3-Hydroxy-4-(4-(4-isopropylphenyl)piperazin-1-yl)but-1-en-1-yl)phenyl)urea]",−0.82,−1.05
"O=C1COc2cc(/C=C/[C@H](O)CN3CCN(c4ccc(C(F)(F)F)cc4)CC3)ccc2N1 [Compound 16, (S,E)-7-(3-hydroxy-4-(4-(4-(trifluoromethyl)phenyl)piperazin-1-yl)but-1-en-1-yl)-2H-benzo[b][1,4]oxazin-3(4H)-one]",−0.67,−1.29
"O=C1CCc2cc(/C=C/[C@@H](O)CN3CCN(c4ccc(Cl)cc4)CC3)ccc2N1 [Compound 31, (R,E)-6-(4-(4-(4-Chlorophenyl)piperazin-1-yl)-3-hydroxybut-1-en-1-yl)-3,4-dihydroquinolin-2(1H)-one]",−0.64,−0.90
"O=C1CCc2cc(/C=C/[C@@H](O)CN3CCN(c4ccc(C(F)(F)F)cn4)CC3)ccc2N1 [Compound 45, (R,E)-6-(3-Hydroxy-4-(4-(5-(trifluoromethyl)pyridin-2-yl)piperazin-1-yl)but-1-en-1-yl)-3,4-dihydroquinolin-2(1H)-one]",−0.80,−0.80
"O=C1CCc2cc(/C=C/[C@H](O)CN3CCN(c4ccc(C(F)(F)F)cc4)CC3)ccc2N1 [Compound 33, (S,E)-6-(3-Hydroxy-4-(4-(4-(trifluoromethyl)phenyl)piperazin-1-yl)but-1-en-1-yl)-3,4-dihydroquinolin-2(1H)-one]",−0.56,−0.65

# Reference: patent US20140275060A1, “COMPOUNDS FOR THE TREATMENT OF NEUROLOGIC DISORDERS” (priority 2013, published 2014)
